What is called Ki is a measure of affinity in units of concentration, obtained from inhibition or displacement. The term clearance denotes a measure of how efficiently the substance is removed, as volume per time. A high value points to a high capacity for elimination. The half-life is the time in which the quantity being followed falls by half. For orientation: bioavailability means the share of a dose that reaches the circulation, judged against a reference dose that is usually intravenous.

The values below come from ChEMBL document CHEMBL1149460, “Pharmacokinetics and metabolism studies on (3-tert-butyl-7-(5-methylisoxazol-3-yl)-2-(1-methyl-1H-1,2,4-triazol-5-ylmethoxy) pyrazolo[1,5-d][1,2,4]triazine, a functionally selective GABA(A) alpha5 inverse agonist for cognitive dysfunction” (Bioorg Med Chem Lett, 2006).

Data set [1] in a line: Binding affinity to GABA alpha5 receptor. Also on record: species or system Homo sapiens.
Data set [2] is described as follows: Efficacy against human GABA alpha-2 receptor expressed in mouse fibroblast L(tk-) cells by whole cell patch clamp method. It is filed as functional. On the technique in general: The patch-clamp technique gives a direct electrical read-out from membranes.
Data set [3] is described as follows: Efficacy against human GABA alpha-5 receptor expressed in mouse fibroblast L(tk-) cells by whole cell patch clamp method. It is filed as functional.
Data set [4] is described as follows: Efficacy against human GABA alpha-3 receptor expressed in mouse fibroblast L(tk-) cells by whole cell patch clamp method. It counts as functional.
Data set [5] has as its target GABA A receptor alpha-1/beta-1/gamma-2 (Homo sapiens) (UniProt P14867+P18507+P18505). In words: Efficacy against human GABA alpha-1 receptor expressed in mouse fibroblast L(tk-) cells by whole cell patch clamp method. It counts as functional, cell-based.
Data set [6] addresses GABA-A receptor; anion channel (Rattus norvegicus) (UniProt O09028+P15431+P18506+P18508+P19969+P20236+P23574+P23576+P28471+P28473+P30191+P62813+P63079+P63138+Q91ZM7+Q9ES14). In words: Receptor occupancy in vivo by displacement of [3H]Ro 15-1788 binding from rat brain GABAA receptor at 3 mg/kg, ip. It is filed as functional, organism-based. More on the design: dose 3 mg/kg. In general terms: In a radioligand displacement assay an active substance lowers the binding of a labelled ligand.

Data set [7] is described as follows: Clearance in rat. It is filed as ADME, organism-based. The note with it: in vivo.
Data set [8] in a line: Clearance in rhesus. The settings on record: rhesus monkey, in vivo. It is filed as ADME, organism-based, Macaca mulatta.
The nature of data set [9]: Clearance in dog. It is filed as ADME, organism-based, Canis lupus familiaris. The settings on record: in vivo.
Data set [10] can be described thus: Half life in rhesus. It is filed as ADME, organism-based, Macaca mulatta. The settings on record: rhesus monkey, in vivo.
A short description of data set [11]: Half life in rat. It is filed as ADME, organism-based. The settings on record: in vivo.
A short description of data set [12]: Oral bioavailability in rhesus. It counts as ADME, organism-based, Macaca mulatta. The note with it: rhesus monkey, in vivo.
A short description of data set [13]: Half life in dog. It is filed as ADME, organism-based, Canis lupus familiaris. The note with it: in vivo.

With `Cn1ncnc1COc1nn2c(-c3cc(CO)on3)nnc(O)c2c1C(C)(C)C`, in [1], the Ki was found to be 370 nM.
Regarding `Cc1cc(-c2nnc(O)c3c(C(C)(C)C)c(OCc4ncnn4C)nn23)no1`, the Efficacy was 0% in data set [2], -47% in data set [3], -8% in data set [4] and 1% in data set [5]. The Ki in [1] amounted to 700 nM.
In data set [6], `Cn1ncnc1COc1nn2c(-c3cc(CO)on3)nncc2c1C(C)(C)C` displayed an Activity of 12%. Also, the Efficacy in [2] was -1%; in data set [3] it was -52%; in data set [4], -15%; in data set [5], -11%. Also, the affinity in [1], expressed as Ki, was 1.1 nM.
On to `Cc1cc(-c2nncc3c(C(C)(C)C)c(OCc4ncnn4C)nn23)no1`, for which the clearance in data set [7] was determined as 27 mL/min/kg; in [8], 33 mL/min/kg; in [9], 39 mL/min/kg. Further, in data set [6], the Activity was over 95%. The half-life in data set [10] was 18 min; in data set [11] it was 30 min; in data set [13], 30 min. The compound also showed a bioavailability in [12] of under 2%. The Efficacy in data set [2] is 6%; in data set [3], -55%; in [4], -9%; in data set [5], -16%. In data set [1], the Ki was found to be 1.4 nM.
`Cc1cc(-c2nncc3c(C(C)(C)CO)c(OCc4ncnn4C)nn23)no1` yielded an Activity in data set [6] of 21%. Moreover, the Efficacy in data set [2] is -23%; in data set [3] it was -40%; in data set [4] it was -32%; in data set [5], -41%. The compound further came in with a Ki in data set [1] of 9.4 nM.
With `Cn1ncnc1COc1nn2c(-c3cc(CO)on3)nncc2c1C(C)(C)CO`, the Activity in data set [6] was found to be 8%. In addition, the Efficacy was -31% in [2], -44% in [3], -39% in data set [4] and -45% in [5]. Further, in [1], affinity was put at a Ki of 21 nM.
Regarding `Cc1cc(-c2nnc(O)c3c(C(C)(C)CO)c(OCc4ncnn4C)nn23)no1`, the Ki in [1] is over 666 nM.
